Literature values in patent publication US8367112B2, “Nanoparticulate carverdilol formulations” (Alkermes Pharma Ireland Limited, priority 2006, dated 2013).
Read-outs that look alike come from different tables or passages of the source.

How the values were obtained:
[1] = in vivo, po

solubility (95% ethanol)	solubility (dimethylsulfoxide)	solubility (ethyl ether)	solubility (gastric fluid (simulated, TS, pH 1.1))	solubility (intestinal fluid (simulated, TS without pancreatin, pH 7.5))	solubility (isopropanol)	solubility (methanol)	solubility (methylene chloride)	solubility (water)	apparent mean terminal elimination half-life [1] [h]	plasma levels relative to S(−)-carvedilol [1]	SMILES
sparingly soluble	freely soluble	slightly soluble	practically insoluble	practically insoluble	sparingly soluble	soluble	soluble	practically insoluble			COc1ccccc1OCCNCC(O)COc1cccc2[nH]c3ccccc3c12 (racemic) [carvedilol, (±)-1-(Carbazol-4-yloxy)-3-[[2-(o-methoxyphenoxy)ethyl]amino]-2-propanol]
									7 to 11		COc1ccccc1OCCNC[C@H](O)COc1cccc2[nH]c3ccccc3c12 (single isomer, unassigned) [S(−)-enantiomer, S(−)-carvedilol]
									5 to 9	2-3 times higher	COc1ccccc1OCCNC[C@@H](O)COc1cccc2[nH]c3ccccc3c12 [R(+)-carvedilol]
